Experimental data taken from patent US10681909B2, “Herbicidal triazoles” (FMC Corporation, priority 2014, dated 2020).

Legend:
pigweed [1] = assay: Test A preemergence; type: in vivo, Amaranthus retroflexus; conditions: 0 to 100 scale (0 no effect, 100 complete control)
Summary of the method: (§1)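 Test chemicals in a non-phytotoxic solvent with surfactant were applied as a directed soil spray preemergence to seeds sown in loam/sand. Postemergence sprays went to plants 2–10 cm tall at the one- to two-leaf stage. A dash means no result.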

foxtail, giant [2] = assay: Test A postemergence; type: in vivo, Setaria faberii; conditions: 0 to 100 scale (0 no effect, 100 complete control), approx. 10 d
Summary of the method: as §1

pigweed [3] = assay: Test A postemergence; type: in vivo, Amaranthus retroflexus; conditions: 0 to 100 scale (0 no effect, 100 complete control), approx. 10 d
Summary of the method: as §1

wheat = assay: Test A postemergence; type: in vivo, Triticum aestivum; conditions: 0 to 100 scale (0 no effect, 100 complete control), approx. 10 d
Summary of the method: as §1

sedge, umbrella = assay: Test B flooded paddy test; type: in vivo, Cyperus difformis; conditions: 250 g ai/ha, applied to paddy water at 2-leaf stage, visual rating after 13 to 15 d, scale 0 (no effect) to 100 (complete control)
Summary of the method: (§2)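 Pots were flooded to 3 cm above the soil at treatment, and compounds were applied directly into the paddy water. That depth was held throughout. After 13 to 15 d in a greenhouse, plants were rated visually against untreated controls.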

barnyardgrass [4] = assay: Test B flooded paddy test; type: in vivo, Echinochloa crus-galli; conditions: 250 g ai/ha, applied to paddy water at 2-leaf stage, visual rating after 13 to 15 d, scale 0 (no effect) to 100 (complete control)
Summary of the method: as §2

blackgrass = assay: Test C postemergence; type: in vivo, Alopecurus myosuroides
Summary of the method: (§3)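 Test chemicals in a non-phytotoxic solvent mixture with surfactant were applied to pots of plants at 2 to 18 cm (1- to 4-leaf stage) for postemergence treatment, grown in a peat-based medium with vermiculite, starter nutrients and dolomitic limestone. Preemergence treatment was to seeds freshly planted in loam soil mixed with sand.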

ryegrass, Italian = assay: Test C postemergence; type: in vivo, Lolium multiflorum
Summary of the method: as §3

wheat (winter wheat) = assay: Test C postemergence; type: in vivo, Triticum aestivum
Summary of the method: as §3

galium = assay: Test C postemergence; type: in vivo, Galium aparine
Summary of the method: as §3

corn = assay: Test C postemergence; type: in vivo, Zea mays
Summary of the method: as §3

foxtail, giant [5] = assay: Test C postemergence; type: in vivo, Setaria faberii
Summary of the method: as §3

lambsquarters = assay: Test C postemergence; type: in vivo, Chenopodium album
Summary of the method: as §3

nutsedge, yellow = assay: Test C postemergence; type: in vivo, Cyperus esculentus
Summary of the method: as §3

soybean = assay: Test C postemergence; type: in vivo, Glycine max
Summary of the method: as §3

barnyardgrass [6] = assay: Test C postemergence; type: in vivo, Echinochloa crus-galli
Summary of the method: as §3

oilseed rape = assay: Test C postemergence; type: in vivo, Brassica napus
Summary of the method: as §3

waterhemp = assay: Test C postemergence; type: in vivo, Amaranthus rudis
Summary of the method: as §3

chickweed = assay: Test C postemergence; type: in vivo, Stellaria media
Summary of the method: as §3

oat, wild = assay: Test C postemergence; type: in vivo, Avena fatua
Summary of the method: as §3

FC(F)(F)COc1nc(-c2ccc(Cl)cc2)nn1Cc1ccnc(C(F)(F)F)c1 [Compound 31]
90: Plant response rating, Foxtail, Giant (foxtail, giant [2]; 500 g ai/ha) | Plant response rating (scale of 0 to 100 where 0 is no effect and 100 is complete control) (oilseed rape; Oilsee Rape, 250 g ai/ha) | Plant response rating (scale of 0 to 100 where 0 is no effect and 100 is complete control) (oilseed rape; Oilseed Rape, 62 g ai/ha) | Plant response rating (scale of 0 to 100 where 0 is no effect and 100 is complete control) (chickweed; 31 g ai/ha)
5: Plant response rating (scale of 0 to 100 where 0 is no effect and 100 is complete control) (wheat (winter wheat); 31 g ai/ha) | Plant response rating (scale of 0 to 100 where 0 is no effect and 100 is complete control) (wheat (winter wheat); 62 g ai/ha)
80: Plant response rating, Foxtail, Giant (foxtail, giant [2]; 125 g ai/ha) | Plant response rating (scale of 0 to 100 where 0 is no effect and 100 is complete control) (blackgrass; 250 g ai/ha) | Plant response rating (scale of 0 to 100 where 0 is no effect and 100 is complete control) (galium; 31 g ai/ha) | Plant response rating (scale of 0 to 100 where 0 is no effect and 100 is complete control) (galium; 62 g ai/ha) | Plant response rating (scale of 0 to 100 where 0 is no effect and 100 is complete control) (galium; 125 g ai/ha) | Plant response rating (scale of 0 to 100 where 0 is no effect and 100 is complete control) (galium; 250 g ai/ha) | Plant response rating (scale of 0 to 100 where 0 is no effect and 100 is complete control) (oat, wild; 125 g ai/ha) | Plant response rating (scale of 0 to 100 where 0 is no effect and 100 is complete control) (oat, wild; 250 g ai/ha)
35: Plant response rating (scale of 0 to 100 where 0 is no effect and 100 is complete control) (blackgrass; 31 g ai/ha) | Plant response rating (scale of 0 to 100 where 0 is no effect and 100 is complete control) (foxtail, giant [5]; 62 g ai/ha) | Plant response rating (scale of 0 to 100 where 0 is no effect and 100 is complete control) (nutsedge, yellow; 250 g ai/ha) | Plant response rating (scale of 0 to 100 where 0 is no effect and 100 is complete control) (soybean; 125 g ai/ha) | Plant response rating (scale of 0 to 100 where 0 is no effect and 100 is complete control) (barnyardgrass [6]; 31 g ai/ha) | Plant response rating (scale of 0 to 100 where 0 is no effect and 100 is complete control) (barnyardgrass [6]; 62 g ai/ha) | Plant response rating (scale of 0 to 100 where 0 is no effect and 100 is complete control) (oat, wild; 62 g ai/ha)
60: Plant response rating (scale of 0 to 100 where 0 is no effect and 100 is complete control) (blackgrass; 125 g ai/ha)
75: Plant response rating (scale of 0 to 100 where 0 is no effect and 100 is complete control) (barnyardgrass [6]; 250 g ai/ha)
10: Plant response rating (scale of 0 to 100 where 0 is no effect and 100 is complete control) (wheat (winter wheat); 125 g ai/ha)
95: Plant response rating (scale of 0 to 100 where 0 is no effect and 100 is complete control) (waterhemp; 31 g ai/ha) | Plant response rating (scale of 0 to 100 where 0 is no effect and 100 is complete control) (chickweed; 62 g ai/ha) | Plant response rating (scale of 0 to 100 where 0 is no effect and 100 is complete control) (chickweed; 125 g ai/ha) | Plant response rating (scale of 0 to 100 where 0 is no effect and 100 is complete control) (chickweed; 250 g ai/ha)
50: Plant response rating (scale of 0 to 100 where 0 is no effect and 100 is complete control) (blackgrass; 62 g ai/ha)
85: Plant response rating (scale of 0 to 100 where 0 is no effect and 100 is complete control) (oilseed rape; Oilseed Rape, 31 g ai/ha) | Plant response rating (scale of 0 to 100 where 0 is no effect and 100 is complete control) (oilseed rape; Oilseed Rape, 125 g ai/ha)
98: Plant response rating (scale of 0 to 100 where 0 is no effect and 100 is complete control) (lambsquarters; 31 g ai/ha) | Plant response rating (scale of 0 to 100 where 0 is no effect and 100 is complete control) (waterhemp; 62 g ai/ha) | Plant response rating (scale of 0 to 100 where 0 is no effect and 100 is complete control) (waterhemp; 250 g ai/ha)
45: Plant response rating (scale of 0 to 100 where 0 is no effect and 100 is complete control) (barnyardgrass [6]; 125 g ai/ha)
100: Plant response rating, Pigweed (pigweed [1]; 125 g ai/ha) | Plant response rating, Pigweed (pigweed [1]; 500 g ai/ha, approx. 10 d) | Plant response rating, Pigweed (pigweed [3]; 125 g ai/ha) | Plant response rating, Pigweed (pigweed [3]; 500 g ai/ha) | Plant response rating, Sedge, Umbrella, Flood (sedge, umbrella) | Plant response rating (scale of 0 to 100 where 0 is no effect and 100 is complete control) (lambsquarters; 62 g ai/ha) | Plant response rating (scale of 0 to 100 where 0 is no effect and 100 is complete control) (lambsquarters; 125 g ai/ha) | Plant response rating (scale of 0 to 100 where 0 is no effect and 100 is complete control) (lambsquarters; 250 g ai/ha) | Plant response rating (scale of 0 to 100 where 0 is no effect and 100 is complete control) (waterhemp; 125 g ai/ha)
40: Plant response rating, Wheat (wheat; 500 g ai/ha) | Plant response rating, Barnyardgrass, Flood (barnyardgrass [4]) | Plant response rating (scale of 0 to 100 where 0 is no effect and 100 is complete control) (ryegrass, Italian; 125 g ai/ha) | Plant response rating (scale of 0 to 100 where 0 is no effect and 100 is complete control) (corn; 31 g ai/ha) | Plant response rating (scale of 0 to 100 where 0 is no effect and 100 is complete control) (foxtail, giant [5]; 125 g ai/ha) | Plant response rating (scale of 0 to 100 where 0 is no effect and 100 is complete control) (foxtail, giant [5]; 250 g ai/ha) | Plant response rating (scale of 0 to 100 where 0 is no effect and 100 is complete control) (soybean; 31 g ai/ha)
15: Plant response rating (scale of 0 to 100 where 0 is no effect and 100 is complete control) (foxtail, giant [5]; 31 g ai/ha)
30: Plant response rating, Wheat (wheat; 125 g ai/ha) | Plant response rating (scale of 0 to 100 where 0 is no effect and 100 is complete control) (ryegrass, Italian; 62 g ai/ha) | Plant response rating (scale of 0 to 100 where 0 is no effect and 100 is complete control) (corn; 250 g ai/ha) | Plant response rating (scale of 0 to 100 where 0 is no effect and 100 is complete control) (nutsedge, yellow; 62 g ai/ha) | Plant response rating (scale of 0 to 100 where 0 is no effect and 100 is complete control) (nutsedge, yellow; 125 g ai/ha) | Plant response rating (scale of 0 to 100 where 0 is no effect and 100 is complete control) (oat, wild; 31 g ai/ha)
65: Plant response rating (scale of 0 to 100 where 0 is no effect and 100 is complete control) (ryegrass, Italian; 250 g ai/ha) | Plant response rating (scale of 0 to 100 where 0 is no effect and 100 is complete control) (soybean; 62 g ai/ha) | Plant response rating (scale of 0 to 100 where 0 is no effect and 100 is complete control) (soybean; 250 g ai/ha)
20: Plant response rating (scale of 0 to 100 where 0 is no effect and 100 is complete control) (ryegrass, Italian; 31 g ai/ha) | Plant response rating (scale of 0 to 100 where 0 is no effect and 100 is complete control) (wheat (winter wheat); 250 g ai/ha) | Plant response rating (scale of 0 to 100 where 0 is no effect and 100 is complete control) (corn; 62 g ai/ha) | Plant response rating (scale of 0 to 100 where 0 is no effect and 100 is complete control) (corn; 125 g ai/ha) | Plant response rating (scale of 0 to 100 where 0 is no effect and 100 is complete control) (nutsedge, yellow; 31 g ai/ha)
